Reference: patent US20080280879A1, “SUBSTITUTED HETEROCYCLIC DERIVATIVES AND THEIR PHARMACEUTICAL USE AND COMPOSITIONS” (priority 2007, published 2008)
Values after ≈ are worked out from the molar mass of the structure shown.

Tests used:
Type in all cases: cell-based, Staphylococcus aureus
[1] = test system: Staph aureus 1146; test: MIC, microtiter broth dilution (CLSI M7-A7), Assay 1, Table 12 column B, no serum; conditions: for MIC: Staphylococcus aureus, 1146, Staph aureus 1146, Assay 1, no serum; for MIC, column B: Staph aureus 1146, Assay 1, no serum
Experimental: (§1) The assays described herein include a panel of bacterial isolates of Staphylococcus aureus. Assay 1 comprises the strains noted in Columns A through E, and Assay 2 comprises the strains noted in Columns F through H. The assays are performed in microtiter trays according to Methods for Dilution Antimicrobial Susceptibility Tests for Bacteria that Grow Aerobically; Approved Standard-7th edition (M7-A7) and interpreted according to the Performance Standards for Antimicrobial Susceptibility Testing; 16th Informational Supplement (M100-S16) published by Clinical Laboratory Standards Institute (CLSI). The antibacterial activity is presented in the form of a minimum inhibitory concentration (MIC) value in μg/ml format. The MIC value represents the lowest concentration of drug measured which prevented macroscopically visible growth under the conditions and specific doses tested. The compounds were initially dissolved in DMSO as 30 mM stocks and diluted accordingly to adjust to a concentration of 10 mg/ml or the compounds were dissolved in DMSO at a concentration of 10 mg/ml. For assessment of activity in the presence of human serum, S. aureus 1146 and S. aureus 1031 were inoculated into Mueller-Hinton Broth with 50% pooled inactivated human serum. In some cases, compounds were tested more than once in a particular assay. Where noted, the MIC value shown in Table 12 represents the geometric mean of the data from multiple runs.
(§2) It should be understood that the data in columns A-H represents MIC data in μg/ml and the notation “<=” means ‘less than or equal to’.

[2] = test system: Staph aureus 2811; test: MIC, microtiter broth dilution (CLSI M7-A7), Assay 1, Table 12 column D, no serum; conditions: for MIC: Staphylococcus aureus, 2811, Staph aureus 2811, Assay 1, no serum; for MIC, column D: Staph aureus 2811, Assay 1, no serum
Experimental: as §1, §2

[3] = test system: Staph aureus 1146; test: MIC in Mueller-Hinton Broth with 50% pooled inactivated human serum, Assay 1, Table 12; conditions: for MIC: Staphylococcus aureus, 1146, Staph aureus 1146, Assay 1, 50% human serum, read-out: MIC, column C; for MIC, column C: Staph aureus 1146, Assay 1, 50% human serum
Experimental: as §1, §2

[4] = test system: Staph aureus 2812; test: MIC, microtiter broth dilution (CLSI M7-A7), Assay 1, Table 12 column E, no serum; conditions: for MIC: Staphylococcus aureus, 2812, Staph aureus 2812, Assay 1, no serum; for MIC, column E: Staph aureus 2812, Assay 1, no serum
Experimental: as §1, §2

[5] = test system: Staph aureus 1095 MRSA; test: MIC, microtiter broth dilution (CLSI M7-A7), Assay 1, Table 12 column A, no serum; conditions: Assay 1, no serum; for MIC: Staphylococcus aureus, MRSA
Experimental: as §1, §2

Row | SMILES | MIC [1] | MIC [2] | MIC [3] | MIC [4] | MIC [5] | MIC, column B [1] | MIC, column D [2] | MIC, column C [3] | MIC, column E [4] | MIC, column A [5]
1 | COc1ccc(C2CC(N3CC[C@@H](CC[C@H](O)c4ccnc5ccc(OC)cc45)[C@@H](C(=O)O)C3)C2)c(F)c1 (stereo partly drawn) [Example 220, (3R,4R)-1-[3-(2-fluoro-4-methoxyphenyl)cyclobutyl]-4-[(3S)-3-hydroxy-3-(6-methoxyquinolin-4-yl)propyl]piperidine-3-carboxylic acid] | 32 µg/mL (≈ 61.2 µM) | 16 µg/mL (≈ 30.6 µM) | > 64 µg/mL | 32 µg/mL (≈ 61.2 µM) | 64 µg/mL (≈ 122 µM) |  |  |  |  | 
2 | COc1ccc2ncc(F)c(C(O)CC[C@@H]3CCN(C4CC(c5c(F)cccc5F)C4)C[C@@H]3C(=O)O)c2n1 (stereo partly drawn) [Example 190, (3R,4R)-1-[3-(2,6-difluorophenyl)cyclobutyl]-4-[3-(3-fluoro-6-methoxy-1,5-naphthyridin-4-yl)-3-hydroxypropyl]piperidine-3-carboxylic acid] |  |  |  |  |  | <0.0625 µg/mL | <0.0625 µg/mL | 1.00 µg/mL (≈ 1.89 µM) | 0.125 µg/mL (≈ 0.236 µM) | <0.0625 µg/mL
3 | COc1ccc2ncc(Cl)c(C(O)CC[C@@H]3CCN(C4CC(c5cc(F)ccc5F)C4)C[C@@H]3C(=O)O)c2c1 (stereo partly drawn) [Example 204, (3R,4R)-4-[3-(3-chloro-6-methoxyquinolin-4-yl)-3-hydroxypropyl]-1-[3-(2,5-difluorophenyl)cyclobutyl]piperidine-3-carboxylic acid] |  |  |  |  |  | 0.125 µg/mL (≈ 0.229 µM) | 0.125 µg/mL (≈ 0.229 µM) | 4.00 µg/mL (≈ 7.34 µM) | 0.250 µg/mL (≈ 0.459 µM) | 0.250 µg/mL (≈ 0.459 µM)
4 | COc1ccc2ncc(Cl)c(CCNC3(C(=O)O)CCCN(C4CC(c5cccc(C(F)(F)F)c5)C4)CC3)c2c1 (stereo not drawn) [Example 157, 4-{[2-(3-chloro-6-methoxyquinolin-4-yl)ethyl]amino}-1-{3-[3-(trifluoromethyl)phenyl]cyclobutyl}azepane-4-carboxylic acid] | 1 µg/mL (≈ 1.74 µM) | 1 µg/mL (≈ 1.74 µM) | > 33 µg/mL | 0.5 µg/mL (≈ 0.868 µM) | 4 µg/mL (≈ 6.94 µM) |  |  |  |  | 
5 | COc1ccc2nccc(C(O)CC[C@@H]3CCN(C4CC(C5CCCC5)C4)C[C@@H]3C(=O)O)c2c1 (stereo partly drawn) [Example 45, (3R,4R)-1-(3-cyclopentylcyclobutyl)-4-[3-hydroxy-3-(6-methoxyquinolin-4-yl)propyl]piperidine-3-carboxylic acid] | ≤ 0.0884 µg/mL | ≤ 0.0884 µg/mL | 0.353 µg/mL (≈ 0.758 µM) | ≤ 0.0884 µg/mL | ≤ 0.125 µg/mL |  |  |  |  | 
6 | COc1ccc2ncc(F)c(C(O)CC[C@@H]3CCN(C4CC(c5cc(F)ccc5F)C4)C[C@@H]3C(=O)O)c2n1 (stereo partly drawn) [Example 217, (3R,4R)-1-[3-(2,5-difluorophenyl)cyclobutyl]-4-[3-(3-fluoro-6-methoxy-1,5-naphthyridin-4-yl)-3-hydroxypropyl]piperidine-3-carboxylic acid] |  |  |  |  |  | 0.0600 µg/mL (≈ 0.113 µM) | 0.125 µg/mL (≈ 0.236 µM) | 2.00 µg/mL (≈ 3.78 µM) | 0.0600 µg/mL (≈ 0.113 µM) | 0.125 µg/mL (≈ 0.236 µM)
7 | COc1ccc2nccc([C@@H](O)CC[C@@H]3CCN(C4CC(c5ccc(-c6ccccc6)cc5)C4)C[C@@H]3C(=O)O)c2c1 (stereo partly drawn) [Example 41, (3R,4R)-1-(3-biphenyl-4-ylcyclobutyl)-4-[(3S)-3-hydroxy-3-(6-methoxyquinolin-4-yl)propyl] piperidine-3-carboxylic acid] | > 64 µg/mL | > 64 µg/mL | > 64 µg/mL | > 64 µg/mL | > 64 µg/mL |  |  |  |  | 
8 | COc1ccc2nccc([C@@H](O)CC[C@@H]3CCN(C4CC(c5ccc(F)c(F)c5F)C4)C[C@@H]3C(=O)O)c2c1 (stereo partly drawn) [Example 197, (3R,4R)-4-[(3S)-3-hydroxy-3-(6-methoxyquinolin-4-yl)propyl]-1-[3-(2,3,4-trifluorophenyl)cyclobutyl] piperidine-3-carboxylic acid] | < 0.0625 µg/mL | < 0.0625 µg/mL | 4 µg/mL (≈ 7.57 µM) | < 0.0625 µg/mL | 0.5 µg/mL (≈ 0.946 µM) |  |  |  |  | 
9 | COc1ccc2nccc(C(O)CC[C@@H]3CCN(C4CC5CCCCCC54)C[C@@H]3C(=O)O)c2c1 (stereo partly drawn) [Example 53, (3R,4R)-1-[(1,7)-bicyclo[5.2.0]non-8-yl]-4-[3-hydroxy-3-(6-methoxyquinolin-4-yl)propyl] piperidine-3-carboxylic acid] |  |  |  |  |  | >64 µg/mL | 32 µg/mL (≈ 68.6 µM) | >64 µg/mL | 16 µg/mL (≈ 34.3 µM) | 16 µg/mL (≈ 34.3 µM)
